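Five concentrations, 48 hours, 96-well plates. GI50 = concentration required for 50% inhibition of growth. TGI: total growth inhibition.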
Legend:
Test in all cases: DTP human tumour cell line panel, 48 h
SNB-19 CNS = system: SNB-19 CNS
BT-549 breast = system: BT-549 breast
SN12C renal = system: SN12C renal
HCT-15 colon = system: HCT-15 colon
SF-268 CNS = system: SF-268 CNS
OVCAR-5 ovarian = system: OVCAR-5 ovarian
HT29 colon = system: HT29 colon
NCI-H522 lung = system: NCI-H522 lung
HOP-92 NSCLC = system: HOP-92 NSCLC
CCRF-CEM leukemia = system: CCRF-CEM leukemia
UACC-257 melanoma = system: UACC-257 melanoma
NCI/ADR-RES ovarian = system: NCI/ADR-RES ovarian
HOP-62 NSCLC = system: HOP-62 NSCLC
A498 renal = system: A498 renal
RXF 393 renal = system: RXF 393 renal
SK-MEL-5 melanoma = system: SK-MEL-5 melanoma
LOX IMVI melanoma = system: LOX IMVI melanoma
TK-10 renal = system: TK-10 renal
NCI-H23 lung = system: NCI-H23 lung
786-0 renal = system: 786-0 renal
RPMI-8226 leukemia = system: RPMI-8226 leukemia
MOLT-4 leukemia = system: MOLT-4 leukemia
MALME-3M melanoma = system: MALME-3M melanoma
MDA-MB-231 breast = system: MDA-MB-231 breast
SR leukemia = system: SR leukemia
HCT-116 colon = system: HCT-116 colon
CAKI-1 renal = system: CAKI-1 renal
OVCAR-8 ovarian = system: OVCAR-8 ovarian
ACHN renal = system: ACHN renal
MDA-MB-435 = system: MDA-MB-435
MCF7 breast = system: MCF7 breast
SK-MEL-2 melanoma = system: SK-MEL-2 melanoma
SK-MEL-28 melanoma = system: SK-MEL-28 melanoma
HCC-2998 colon = system: HCC-2998 colon
A549 NSCLC = system: A549 NSCLC
NCI-H226 lung = system: NCI-H226 lung
UACC-62 melanoma = system: UACC-62 melanoma
SK-OV-3 ovarian = system: SK-OV-3 ovarian
SNB-75 CNS = system: SNB-75 CNS
SF-539 CNS = system: SF-539 CNS
EKVX NSCLC = system: EKVX NSCLC
SW-620 colon = system: SW-620 colon
UO-31 renal = system: UO-31 renal
IGROV1 ovarian = system: IGROV1 ovarian
COLO 205 colon = system: COLO 205 colon
NCI-H460 lung = system: NCI-H460 lung
K-562 leukemia = system: K-562 leukemia
T-47D breast = system: T-47D breast
U251 CNS = system: U251 CNS
HS 578T breast = system: HS 578T breast
OVCAR-4 ovarian = system: OVCAR-4 ovarian
DU-145 prostate = system: DU-145 prostate
SF-295 CNS = system: SF-295 CNS
PC-3 prostate = system: PC-3 prostate
OVCAR-3 ovarian = system: OVCAR-3 ovarian
KM12 colon = system: KM12 colon
HL-60(TB) leukemia = system: HL-60(TB) leukemia

O=c1cc(NCC(O)CN2CCOCC2)n(Cc2ccccc2)c(=O)n1Cc1ccccc1 (centres undefined)
GI50 (SNB-19 CNS): > 100 µM
TGI (SNB-19 CNS): > 100 µM
GI50 (BT-549 breast): 45.9 µM
TGI (BT-549 breast): > 100 µM
GI50 (SN12C renal): 42.3 µM
TGI (SN12C renal): > 100 µM
GI50 (HCT-15 colon): 45.5 µM
TGI (HCT-15 colon): > 100 µM
GI50 (SF-268 CNS): 63.6 µM
TGI (SF-268 CNS): > 100 µM
GI50 (OVCAR-5 ovarian): > 100 µM
TGI (OVCAR-5 ovarian): > 100 µM
GI50 (HT29 colon): 18.8 µM
TGI (HT29 colon): 41.6 µM
GI50 (NCI-H522 lung): 28.1 µM
TGI (NCI-H522 lung): 72 µM
GI50 (HOP-92 NSCLC): 21.7 µM
TGI (HOP-92 NSCLC): 77.1 µM
GI50 (CCRF-CEM leukemia): 36.9 µM
TGI (CCRF-CEM leukemia): > 100 µM
GI50 (UACC-257 melanoma): 30.2 µM
TGI (UACC-257 melanoma): 85.8 µM
GI50 (NCI/ADR-RES ovarian): 65.7 µM
TGI (NCI/ADR-RES ovarian): > 100 µM
GI50 (HOP-62 NSCLC): 34.2 µM
TGI (HOP-62 NSCLC): > 100 µM
GI50 (A498 renal): 49.3 µM
TGI (A498 renal): > 100 µM
GI50 (RXF 393 renal): 30.5 µM
TGI (RXF 393 renal): 92.5 µM
GI50 (SK-MEL-5 melanoma): 19.2 µM
TGI (SK-MEL-5 melanoma): 35 µM
GI50 (LOX IMVI melanoma): 37.8 µM
TGI (LOX IMVI melanoma): > 100 µM
GI50 (TK-10 renal): > 100 µM
TGI (TK-10 renal): > 100 µM
GI50 (NCI-H23 lung): 42.5 µM
TGI (NCI-H23 lung): > 100 µM
GI50 (786-0 renal): 41.4 µM
TGI (786-0 renal): > 100 µM
GI50 (RPMI-8226 leukemia): 28.3 µM
TGI (RPMI-8226 leukemia): 78 µM
GI50 (MOLT-4 leukemia): 27.8 µM
TGI (MOLT-4 leukemia): > 100 µM
GI50 (MALME-3M melanoma): 26.9 µM
TGI (MALME-3M melanoma): 77.3 µM
GI50 (MDA-MB-231 breast): 19.2 µM
TGI (MDA-MB-231 breast): 53.6 µM
GI50 (SR leukemia): 19.8 µM
TGI (SR leukemia): 49.3 µM
GI50 (HCT-116 colon): 34.8 µM
TGI (HCT-116 colon): > 100 µM
GI50 (CAKI-1 renal): 85.9 µM
TGI (CAKI-1 renal): > 100 µM
GI50 (OVCAR-8 ovarian): 72.8 µM
TGI (OVCAR-8 ovarian): > 100 µM
GI50 (ACHN renal): 49.8 µM
TGI (ACHN renal): > 100 µM
GI50 (MDA-MB-435): 59.7 µM
TGI (MDA-MB-435): > 100 µM
GI50 (MCF7 breast): 41.8 µM
TGI (MCF7 breast): > 100 µM
GI50 (SK-MEL-2 melanoma): > 100 µM
TGI (SK-MEL-2 melanoma): > 100 µM
GI50 (SK-MEL-28 melanoma): 28.7 µM
TGI (SK-MEL-28 melanoma): 70.3 µM
GI50 (HCC-2998 colon): 34.9 µM
TGI (HCC-2998 colon): > 100 µM
GI50 (A549 NSCLC): 53.5 µM
TGI (A549 NSCLC): > 100 µM
GI50 (NCI-H226 lung): 56.8 µM
TGI (NCI-H226 lung): > 100 µM
GI50 (UACC-62 melanoma): 22.7 µM
TGI (UACC-62 melanoma): 63.3 µM
GI50 (SK-OV-3 ovarian): > 100 µM
TGI (SK-OV-3 ovarian): > 100 µM
GI50 (SNB-75 CNS): 31.8 µM
TGI (SNB-75 CNS): 91.3 µM
GI50 (SF-539 CNS): 60.2 µM
TGI (SF-539 CNS): > 100 µM
GI50 (EKVX NSCLC): 70.6 µM
TGI (EKVX NSCLC): > 100 µM
GI50 (SW-620 colon): 62.5 µM
TGI (SW-620 colon): > 100 µM
GI50 (UO-31 renal): 27.3 µM
TGI (UO-31 renal): 85.8 µM
GI50 (IGROV1 ovarian): 33.5 µM
TGI (IGROV1 ovarian): 86.3 µM
GI50 (COLO 205 colon): 23.5 µM
TGI (COLO 205 colon): 58.6 µM
GI50 (NCI-H460 lung): 44.2 µM
TGI (NCI-H460 lung): > 100 µM
GI50 (K-562 leukemia): 30.8 µM
TGI (K-562 leukemia): > 100 µM
GI50 (T-47D breast): 61 µM
TGI (T-47D breast): > 100 µM
GI50 (U251 CNS): 47.6 µM
TGI (U251 CNS): > 100 µM
GI50 (HS 578T breast): 37.8 µM
TGI (HS 578T breast): > 100 µM
GI50 (OVCAR-4 ovarian): 39.9 µM
TGI (OVCAR-4 ovarian): > 100 µM
GI50 (DU-145 prostate): 51.7 µM
TGI (DU-145 prostate): > 100 µM
GI50 (SF-295 CNS): 41.2 µM
TGI (SF-295 CNS): > 100 µM
GI50 (PC-3 prostate): 33.7 µM
TGI (PC-3 prostate): > 100 µM
GI50 (OVCAR-3 ovarian): 56.2 µM
TGI (OVCAR-3 ovarian): > 100 µM
GI50 (KM12 colon): 36.1 µM
TGI (KM12 colon): > 100 µM
GI50 (HL-60(TB) leukemia): 12.6 µM
TGI (HL-60(TB) leukemia): > 100 µM
